# Source: patent US9050345B2, “Pyrrolotriazines as potassium ion channel inhibitors” (BRISTOL-MYERS SQUIBB COMPANY, priority 2013, dated 2015)
# Biological target: T1, human KV 1.5 (IKur) (Homo sapiens, UniProt P22460)
# T1 construct: expressed in transfected cells
# Assay: block of IKur current in patch clamped L-929 cells expressing human Kv1.5
# Format: cell-based
# Settings: 0.3 μM; patch clamped mammalian L-929 cells stably expressing human Kv1.5
# Description: Assays to determine the degree of activity of a compound as an IKur inhibitor are well known in the art and are described in references such as J. Gen. Physiol., 101(4):513-543 (April 1993), and Br. J. Pharmacol., 115(2):267-274 (May 1995).
# Synders, D. J. et al., “A rapidly activating and slowly inactivating potassium channel cloned from human heart: functional analysis after stable mammalian cell culture expression”, J. Gen. Physiol., 101:513-543 (1993). • 2. Zhou, Z. et al., “Block of HERG potassium channels by the antihistamine astemizole and its metabolites desmethylastemizole and norastemizole”, J. Cardiovasc. Electrophysiol., 10(6):836-843 (1999).
# T1 sequence (P22460 whole entry): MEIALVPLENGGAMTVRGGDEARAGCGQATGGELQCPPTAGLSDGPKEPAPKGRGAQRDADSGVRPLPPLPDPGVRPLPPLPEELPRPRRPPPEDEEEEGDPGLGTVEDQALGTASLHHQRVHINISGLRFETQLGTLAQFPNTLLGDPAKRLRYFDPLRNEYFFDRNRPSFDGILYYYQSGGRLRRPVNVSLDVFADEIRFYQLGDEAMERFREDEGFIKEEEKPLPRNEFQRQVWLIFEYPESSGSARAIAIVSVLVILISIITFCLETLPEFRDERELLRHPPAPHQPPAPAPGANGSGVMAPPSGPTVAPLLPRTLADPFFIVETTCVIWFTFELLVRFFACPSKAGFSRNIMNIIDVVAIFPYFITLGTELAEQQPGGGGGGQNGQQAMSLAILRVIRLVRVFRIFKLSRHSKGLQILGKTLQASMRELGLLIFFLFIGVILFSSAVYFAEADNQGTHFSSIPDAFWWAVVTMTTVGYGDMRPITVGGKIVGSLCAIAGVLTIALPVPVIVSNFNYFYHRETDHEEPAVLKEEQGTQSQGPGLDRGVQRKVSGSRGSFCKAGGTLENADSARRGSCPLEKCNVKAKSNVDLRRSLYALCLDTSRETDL
row,Structure (SMILES),KV1_5% Inh L929 @0.3 μM
1,"NS(=O)(=O)c1cncc(-c2nc(NC(CO)c3ccccn3)c3c(-c4ccccc4)ccn3n2)c1 (stereo not drawn) [Example 33, 5-(4-((2-Hydroxy-1-(pyridin-2-yl)ethyl)amino)-5-phenylpyrrolo[2,1-f][1,2,4]triazin-2-yl)pyridine-3-sulfonamide]",95.01%
2,"NS(=O)(=O)CCc1cncc(-c2nc(NCc3ccccn3)c3c(-c4ccccc4)ccn3n2)c1 [Example 38, 2-(5-(5-Phenyl-4-(pyridin-2-ylmethylamino)pyrrolo[1,2-f][1,2,4]triazin-2-yl)pyridin-3-yl)ethanesulfonamide]",97.45%

# Same assay, conditions: L929, 0.3 μM; patch clamped mammalian L-929 cells stably expressing human Kv1.5; read-out: KV1_5% Inh L929 @0.3 μM
row,Structure (SMILES),inhibition at 0.3 µM
1,"Cc1nc(CNc2nc(-c3cncc(S(N)(=O)=O)c3)nn3ccc(-c4ccccc4)c23)cs1 [Example 32, 5-(4-((2-Methylthiazol-4-yl)methylamino)-5-phenylpyrrolo[1,2-f][1,2,4]triazin-2-yl)pyridine-3-sulfonamide]",99.3%
2,"NS(=O)(=O)c1cncc(-c2nc(NC(CO)c3ccccn3)c3c(-c4ccccc4)ccn3n2)c1 (stereo not drawn) [Example 33, 5-(4-((2-Hydroxy-1-(pyridin-2-yl)ethyl)amino)-5-phenylpyrrolo[2,1-f][1,2,4]triazin-2-yl)pyridine-3-sulfonamide]",87.8%
3,"CC(C)(C)OC(=O)NC1(c2nc(NCc3ccccn3)c3c(-c4ccccc4)ccn3n2)CC1 [Example 34, tert-Butyl 1-(5-phenyl-4-(pyridin-2-ylmethylamino)pyrrolo[1,2-f][1,2,4]triazin-2-yl)cyclopropylcarbamate]",97.3%
4,"COC(=O)NC1(c2nc(NCc3ccccn3)c3c(-c4ccccc4)ccn3n2)CC1 [Example 35, Methyl 1-(5-phenyl-4-(pyridin-2-ylmethylamino)pyrrolo[1,2-f][1,2,4]triazin-2-yl)cyclopropylcarbamate]",92.8%
5,"CC(=O)NC1(c2nc(NCc3ccccn3)c3c(-c4ccccc4)ccn3n2)CC1 [Example 36, N-(1-(5-Phenyl-4-(pyridin-2-ylmethylamino)pyrrolo[1,2-f][1,2,4]triazin-2-yl)cyclopropyl)acetamide]",46%
6,"CS(=O)(=O)NC1(c2nc(NCc3ccccn3)c3c(-c4ccccc4)ccn3n2)CC1 [Example 37, N-(1-(5-Phenyl-4-(pyridin-2-ylmethylamino)pyrrolo[1,2-f][1,2,4]triazin-2-yl)cyclopropyl)methanesulfonamide]",98.6%
7,"NS(=O)(=O)c1cc(-c2nc(NCc3ccccn3)c3c(-c4ccccc4)ccn3n2)cnc1C(F)F [Example 39, 2-(Difluoromethyl)-5-(5-phenyl-4-(pyridin-2-ylmethylamino)pyrrolo[1,2-f][1,2,4]triazin-2-yl)pyridine-3-sulfonamide]",97.1%
8,"COc1ncc(-c2nc(N3Cc4cccnc4C3)c3c(-c4ccccc4)ccn3n2)cc1S(N)(=O)=O [Example 40, 2-Methoxy-5-(5-phenyl-4-(5H-pyrrolo[3,4-b]pyridin-6(7H)-yl)pyrrolo[1,2-f][1,2,4]triazin-2-yl)pyridine-3-sulfonamide]",40.4%
9,"CC(C)Oc1ncc(-c2nc(NCc3ccccn3)c3c(-c4ccccc4)ccn3n2)cc1S(N)(=O)=O [Example 41, 2-Isopropoxy-5-(5-phenyl-4-((pyridin-2-ylmethyl)amino)pyrrolo[2,1-f][1,2,4]triazin-2-yl)pyridine-3-sulfonamide]",95.1%
10,"CC(=O)Nc1cncc(-c2nc(NCc3ccccn3)c3c(-c4ccccc4)ccn3n2)n1 [Example 42, N-(6-(5-Phenyl-4-(pyridin-2-ylmethylamino)pyrrolo[1,2-f][1,2,4]triazin-2-yl)pyrazin-2-yl)acetamide]",99.4%
11,"COC(=O)C(CS(N)(=O)=O)NC(=O)c1cncc(-c2nc(NCc3ccccc3)c3c(-c4ccccc4)ccn3n2)c1 (stereo not drawn) [Example 45, Methyl 2-(5-(4-(benzylamino)-5-phenylpyrrolo[2,1-f][1,2,4]triazin-2-yl)nicotinamido)-3-sulfamoylpropanoate]",90.1%
12,"CC(=O)Nc1cncc(-c2nc(NCc3ccccn3)c3c(-c4ccccc4)ccn3n2)c1 [Example 47, N-(5-(5-phenyl-4-(pyridin-2-ylmethylamino)pyrrolo[1,2-f][1,2,4]triazin-2-yl)pyridin-3-yl)acetamide]",94.8%
13,"CC(=O)Nc1cccc(-c2nc(NCc3ccccn3)c3c(-c4ccccc4)ccn3n2)c1 [Example 48, N-(3-(5-phenyl-4-(pyridin-2-ylmethylamino)pyrrolo[1,2-f][1,2,4]triazin-2-yl)phenyl) acetamide]",96.6%
14,"NS(=O)(=O)c1cc(-c2nc(NCc3ccccn3)c3c(-c4ccccc4)ccn3n2)cnc1O [Example 49, 2-hydroxy-5-(5-phenyl-4-(pyridin-2-ylmethylamino)pyrrolo[1,2-f][1,2,4]triazin-2-yl)pyridine-3-sulfonamide]",84.9%
15,NS(=O)(=O)Nc1cccc(-c2nc(NCc3ccccn3)c3c(-c4ccccc4)ccn3n2)c1 [Example 50],97.8%
16,"CCOC(=O)CS(=O)(=O)Nc1cncc(-c2nc(NCc3ccccn3)c3c(-c4ccccc4)ccn3n2)c1 [Example 51, ethyl 2-(N-(5-(5-phenyl-4-(pyridin-2-ylmethylamino)pyrrolo[1,2-f][1,2,4]triazin-2-yl)pyridin-3-yl)sulfamoyl)acetate]",88.2%

row,Structure (SMILES),inhibition at 0.3 µM
1,"NC(=O)CC(=O)Nc1cncc(-c2nc(NCc3ccccn3)c3c(-c4ccccc4)ccn3n2)c1 [Example 52, N1-(5-(5-phenyl-4-(pyridin-2-ylmethylamino)pyrrolo[1,2-f][1,2,4]triazin-2-yl)pyridin-3-yl)malonamide]",96.1%
2,"CC(=O)Nc1ccccc1-c1nc(NCc2ccccn2)c2c(-c3ccccc3)ccn2n1 [Example 53, N-(2-(5-phenyl-4-(pyridin-2-ylmethylamino)pyrrolo[1,2-f][1,2,4]triazin-2-yl)phenyl) acetamide]",98.1%
3,"CC(=O)Nc1ccc(-c2nc(NCc3ccccn3)c3c(-c4ccccc4)ccn3n2)cn1 [Example 54, N-(5-(5-phenyl-4-(pyridin-2-ylmethylamino)pyrrolo[1,2-f][1,2,4]triazin-2-yl)pyridin-2-yl)acetamide]",90.2%
4,"NC(=O)CS(=O)(=O)Nc1cncc(-c2nc(NCc3ccccn3)c3c(-c4ccccc4)ccn3n2)c1 [Example 55, 2-(N-(5-(5-phenyl-4-(pyridin-2-ylmethylamino)pyrrolo[1,2-f][1,2,4]triazin-2-yl)pyridin-3-yl)sulfamoyl)acetamide]",20.6%
5,"O=S(=O)(Nc1cncc(-c2nc(NCc3ccccn3)c3c(-c4ccccc4)ccn3n2)c1)C1CC1 [Example 56, N-(5-(5-phenyl-4-(pyridin-2-ylmethylamino)pyrrolo[1,2-f][1,2,4]triazin-2-yl)pyridin-3-yl) cyclopropanesulfonamide]",93.8%
6,"CCCS(=O)(=O)Nc1cncc(-c2nc(NCc3ccccn3)c3c(-c4ccccc4)ccn3n2)c1 [Example 57, N-(5-(5-phenyl-4-(pyridin-2-ylmethylamino)pyrrolo[1,2-f][1,2,4]triazin-2-yl)pyridin-3-yl) propane-1-sulfonamide]",95.5%
7,"CC(C)CS(=O)(=O)Nc1cncc(-c2nc(NCc3ccccn3)c3c(-c4ccccc4)ccn3n2)c1 [Example 58, 2-methyl-N-(5-(5-phenyl-4-(pyridin-2-ylmethylamino)pyrrolo [1,2-f][1,2,4]triazin-2-yl)pyridin-3-yl) propane-1-sulfonamide]",96.1%
8,"CCOC(=O)Nc1cncc(-c2nc(NCc3ccccn3)c3c(-c4ccccc4)ccn3n2)c1 [Example 59, ethyl 5-(5-phenyl-4-(pyridin-2-ylmethylamino)pyrrolo[1,2-f][1,2,4]triazin-2-yl)pyridin-3-ylcarbamate]",97%
9,"CCOC(=O)CS(=O)(=O)Nc1cccc(-c2nc(NCc3ccccn3)c3c(-c4ccccc4)ccn3n2)c1 [Example 60, ethyl 2-(N-(3-(5-phenyl-4-(pyridin-2-ylmethylamino)pyrrolo[1,2-f][1,2,4]triazin-2-yl)phenyl)sulfamoyl)acetate]",97.6%
10,"O=S(=O)(CC(F)(F)F)Nc1cncc(-c2nc(NCc3ccccn3)c3c(-c4ccccc4)ccn3n2)c1 [Example 61, 2,2,2-trifluoro-N-(5-(5-phenyl-4-(pyridin-2-ylmethylamino)pyrrolo [1,2-f][1,2,4]triazin-2-yl)pyridin-3-yl)ethanesulfonamide]",90%
11,"CCS(=O)(=O)Nc1cncc(-c2nc(NCc3ccccn3)c3c(-c4ccccc4)ccn3n2)c1 [Example 62, N-(5-(5-phenyl-4-(pyridin-2-ylmethylamino)pyrrolo[1,2-f][1,2,4]triazin-2-yl)pyridin-3-yl)ethanesulfonamide]",97.9%
12,"O=S(=O)(CCCCl)Nc1cncc(-c2nc(NCc3ccccn3)c3c(-c4ccccc4)ccn3n2)c1 [Example 63, 3-chloro-N-(5-(5-phenyl-4-(pyridin-2-ylmethylamino)pyrrolo[1,2-f][1,2,4]triazin-2-yl)pyridin-3-yl)propane-1-sulfonamide]",97.8%
13,"CC(C)S(=O)(=O)Nc1cncc(-c2nc(NCc3ccccn3)c3c(-c4ccccc4)ccn3n2)c1 [Example 64, N-(5-(5-phenyl-4-(pyridin-2-ylmethylamino)pyrrolo[1,2-f][1,2,4]triazin-2-yl)pyridin-3-yl)propane-2-sulfonamide]",97.6%
14,"c1ccc(-c2ccn3nc(-c4cn[nH]c4)nc(NCc4ccccn4)c23)cc1 [Example 65, 5-phenyl-2-(1H-pyrazol-4-yl)-N-(pyridin-2-ylmethyl) pyrrolo[1,2-f][1,2,4] triazin-4-amine]",97.7%
15,"N#Cc1cccc(-c2nc(NCc3ccccn3)c3c(-c4ccccc4)ccn3n2)c1 [Example 66, 3-(5-phenyl-4-(pyridin-2-ylmethylamino)pyrrolo[1,2-f][1,2,4]triazin-2-yl)benzonitrile]",89.2%
